Experiments:
SKOV-3 = experiment: Inhibition of proliferation / cytotoxicity, SKOV-3; type: cell-based; details: SKOV-3 human ovary cancer cell line; read-out: Tumor Cell Line (IC50, nM) SKOV-3
Description: (§1) The biological activity of compounds of this invention was evaluated by measuring their inhibitory effect on the proliferation of various tumor cell lines. MCF-7, A549, and SKOV-3 are human breast, lung, and ovary cancer cell lines, respectively. NCI/ADR is a multi-drug resistant breast cancer cell line. CCRF-CEM and CCRF-CEM/PTX are human leukemia cell lines, the latter being a paclitaxel-resistant subline. LNCaP is a prostate cancer cell line.

NCI/ADR = experiment: Inhibition of proliferation / cytotoxicity, NCI/ADR; type: cell-based; details: NCI/ADR multi-drug resistant breast cancer cell line; read-out: Tumor Cell Line (IC50, nM) NCI/ADR
Description: as §1

MCF-7 = experiment: Inhibition of proliferation / cytotoxicity, MCF-7; type: cell-based; details: MCF-7 human breast cancer cell line; read-out: Tumor Cell Line (IC50, nM) MCF-7
Description: as §1

CCRF-CEM = experiment: Inhibition of proliferation / cytotoxicity, CCRF-CEM; type: cell-based; details: CCRF-CEM human leukemia cell line; read-out: Tumor Cell Line (IC50, nM) CCRF-CEM
Description: as §1

A549 = experiment: Inhibition of proliferation / cytotoxicity, A549; type: cell-based; details: A549 human lung cancer cell line; read-out: Tumor Cell Line (IC50, nM) A549
Description: as §1

CCRF-CEM/PTX = experiment: Inhibition of proliferation / cytotoxicity, CCRF-CEM/PTX; type: cell-based; details: CCRF-CEM/PTX paclitaxel-resistant human leukemia subline; read-out: Tumor Cell Line (IC50, nM) CCRF-CEM/PTX
Description: as §1

LNCaP = experiment: Inhibition of proliferation / cytotoxicity, LNCaP; type: cell-based; details: LNCaP prostate cancer cell line; read-out: Tumor Cell Line (IC50, nM) LNCaP
Description: as §1

[1] = Mouse maximum tolerated dose, single dose intravenous; type: in vivo; details: mice, single dose intravenous administration
Description: The maximum tolerated dose (MTD) in mice, upon single dose intravenous administration was determined for a representative selection of compounds. The data are summarized in Table 4, with comparative data for LMB included.

K562 cells = experiment: Cytotoxicity against Bcr-Abl positive K562 cells; type: cell-based; details: K562, Bcr-Abl positive CML cell line
From the text: Data was also obtained for the cytotoxicity of several compounds of this invention against K562, a Bcr-Abl positive CML cell line, as shown in Table 3 with comparative data for LMB included.

MB 49 cells = experiment: Cytotoxicity against MB 49 murine bladder cancer cells; type: cell-based
From the text: Table 5 presents data on the cytotoxicity of LMB and selected compounds of this invention against MB 49 cells, a line of murine bladder cancer cells.

[2] = Kudo et al., Exp. Cell Res. 1998; cited from earlier work

Compound	IC50 (SKOV-3) [nM]	IC50 (NCI/ADR) [nM]	IC50 (MCF-7) [nM]	IC50 (CCRF-CEM) [nM]	IC50 (A549) [nM]	IC50 (CCRF-CEM/PTX) [nM]	IC50 (LNCaP) [nM]	Mouse MTD [1] [mg/kg]	IC50 (K562 cells) [nM]	IC50 (MB 49 cells) [nM]	activity of LMB analog [2]
CCC(C=CC1OC(=O)C=CC1C)=CC(C)CC=CC(C)=CC(C)C(=O)C(C)C(O)C(C)CC(C)=CC(=O)NCCCCNC(=O)OC(C)(C)C (stereo not shown) [Compound 14]	2.5	33	0.3	1.7	1.6	2.4					
CCC(C=CC1OC(=O)C=CC1C)=CC(C)CC=CC(C)=CC(C)C(=O)C(C)C(O)C(C)CC(C)=CC(=O)NCCN (stereo not shown) [Compound 15]	41	630	4.6	17	15	110	4.2				
CCC(C=CC1OC(=O)C=CC1C)=CC(C)CC=CC(C)=CC(C)C(=O)C(C)C(O)C(C)CC(C)=CC(=O)NCCN(C)C (stereo not shown) [Compound 7]	2.8	110	0.61	1.4	2.2	3.1	0.7	15			
CCC(C=CC1OC(=O)C=CC1C)=CC(C)CC=CC(C)=CC(C)C(=O)C(C)C(O)C(C)CC(C)=CC(=O)NCCNC(=O)OC(C)(C)C (stereo not shown) [Compound 6]	1.2	34	0.32	1.1	1.3	2.3					
CCC(C=CC1OC(=O)C=CC1C)=CC(C)CC=CC(C)=CC(C)C(=O)C(C)C(O)C(C)CC(C)=CC(=O)NCCNC (stereo not shown) [Compound 16]	9.7	460	3.2	1.8	3.5	29	27.2				
CCC(C=CC1OC(=O)C=CC1C)=CC(C)CC=CC(C)=CC(C)C(=O)C(C)C(O)C(C)CC(C)=CC(=O)NCc1ccc(-c2ccccc2)cc1 (stereo not shown) [Compound 3]	13	150	3.7	3.5	13	17					
CCC(C=CC1OC(=O)C=CC1C)=CC(C)CC=CC(C)=CC(C)C(=O)C(C)C(O)C(C)CC(C)=CC(=O)NCCc1cccnc1 (stereo not shown) [Compound 4]	2.8	19	0.32	1	0.84	1.4	0.5	40	1.7	5.9	
CCC(C=CC1OC(=O)C=CC1C)=CC(C)CC=CC(C)=CC(C)C(=O)C(C)C(O)C(C)CC(C)=CC(=O)NCCO (stereo not shown) [Compound 2]	2.6	27	0.78	2.4	2.2	2.8					
CCC(C=CC1OC(=O)C=CC1C)=CC(C)CC=CC(C)=CC(C)C(=O)C(C)C(O)C(C)CC(C)=CC(=O)NCCCN1CCOCC1 (stereo not shown) [Compound 8]	2.5	39	0.3	0.98	0.84	2.1	0.5	20	1	6.8	
CCC(C=CC1OC(=O)C=CC1C)=CC(C)CC=CC(C)=CC(C)C(=O)C(C)C(O)C(C)CC(C)=CC(=O)NCCCCCNC(=O)COc1ccc(C2=NC(=Cc3ccc(-c4cccs4)n3B(F)F)C=C2)cc1 (stereo not shown) [Compound 20]	570	1000	210		250		87.4				
CCC(C=CC1OC(=O)C=CC1C)=CC(C)CC=CC(C)=CC(C)C(=O)C(C)C(O)C(C)CC(C)=CC(=O)Nc1ccc2cn[nH]c2c1 (stereo not shown) [Compound 5]	5.9	34	2	3.1	3.3	9					
CCC(C=CC1OC(=O)C=CC1C)=CC(C)CC=CC(C)=CC(C)C(=O)C(C)C(O)C(C)CC(C)=CC(=O)NCCNC(C)C (stereo not shown) [Compound 17]	44	740	3.5		4.7						
CCC(C=CC1OC(=O)C=CC1C)=CC(C)CC=CC(C)=CC(C)C(=O)C(C)C(O)C(C)CC(C)=CC(=O)NCCC1OCCO1 (stereo not shown) [Compound 11]	1.5	5.8	0.3	0.43	0.67	0.47					
CCC(C=CC1OC(=O)C=CC1C)=CC(C)CC=CC(C)=CC(C)C(=O)C(C)C(O)C(C)CC(C)=CC(=O)NCC(=O)OC (stereo not shown) [Compound 10]	2.7	4.6	0.3	0.63	1.4	0.5	0.8				
CCC(C=CC1OC(=O)C=CC1C)=CC(C)CC=CC(C)=CC(C)C(=O)C(C)C(O)C(C)CC(C)=CC(=O)NCc1c(C)c(=O)n2c(=O)c(C)c(C)n12 (stereo not shown) [Compound 18]	15	380	3.4		4.3						
CCC(C=CC1OC(=O)C=CC1C)=CC(C)CC=CC(C)=CC(C)C(=O)C(C)C(O)C(C)CC(C)=CC(=O)NCC(=O)O (stereo not shown) [Compound 21]	57	260	31		37		28.6				
CCC(C=CC1OC(=O)C=CC1C)=CC(C)CC=CC(C)=CC(C)C(=O)C(C)C(O)C(C)CC(C)=CC(=O)NCCOc1ccccc1 (stereo not shown) [Compound 9]	4.3	37	0.64	1.9	2.8	2.5					
CCC(=C/[C@H](C)C/C=C/C(C)=C/[C@@H](C)C(=O)[C@@H](C)[C@H](O)[C@@H](C)C/C(C)=C/C(=O)OC)/C=C/[C@@H]1OC(=O)CC(C[N+](=O)[O-])[C@@H]1C (stereo partly shown) [nitromethyl valerolactone LMB analog]											inactive
CCC(=C/[C@H](C)C/C=C/C(C)=C/[C@@H](C)C(=O)[C@@H](C)[C@H](O)[C@@H](C)C/C(C)=C/C(=O)NCCCCCCNC(=O)CCCC[C@H]1SC[C@@H]2NC(=O)N[C@@H]21)/C=C/[C@@H]1OC(=O)C=C[C@@H]1C [biotinylated LMB]											active
CCC(C=CC1OC(=O)C=CC1C)=CC(C)CC=CC(C)=CC(C)C(=O)C(C)C(O)C(C)CC(C)=CC(=O)NC (stereo not shown) [Compound 1]	1.7	2.1	0.27	0.69	0.36	0.46	0.8	5			
CCC(C=CC1OC(=O)C=CC1C)=CC(C)CC=CC(C)=CC(C)C(=O)C(C)C(O)C(C)CC(C)=CC(=O)NCCNC(=O)CCC1=NC(=Cc2c(C)cc(C)n2B(F)F)C=C1 (stereo not shown) [Compound 19]	20	300	3.4		4.6		1.6				

— US7655808B2, “Leptomycin compounds” (priority 2004, dated 2010)
